Data from patent US12290519B2, “Anti-inflammatory coupling compound drug, and preparation method therefor and use thereof” (COVAL BIOPHARMA (SHANGHAI) CO., LTD., priority 2021, dated 2025).

Tests used:
[1] = tested on: IMQ-induced psoriasis mouse model; experiment: IMQ-induced psoriasis mouse model, PASI score of compound ointments applied to skin; assay type: in vivo; conditions: ointment 20 mg/g, 50 mg, skin smear BID, day 1 to day 9; BALB/c mice, 5% IMQ cream; Two-way ANOVA p<0.05
Experimental: Efficacy Evaluation Study of Ointment Transdermal Patch Formulated by Compounds Using IMQ-Induced Psoriasis Mouse Model
BALB/c mice (male) aged 6-8 weeks were selected to have depilated back skin with an area of 2×3 cm. 5% IMQ cream 62.5 mg was applied once a day for 9 consecutive days for model induction. Mice were housed in an SPF-grade animal room in IVC cages at a temperature of 20-26° C. and a humidity of 40-70% under a 12-hour light-dark cycle. Diet ad libitum, except where fasting is required.
Mice were randomly divided into groups, a number of 8 mice, administration concentration 20 mg/g, administration amount 50 mg, administration route, and frequency: skin smear, BID. The positive control was compound dexamethasone acetate (Dex) cream which is a commercially available product with a Dex content of 0.75 mg/g (999 Piyanping, Sanjiu Pharmaceutical). Dosing started from day 1 (the first day) (the day of model induction) to day 9.
2. Preparation of Test Ointment
Topical preparations are mostly semi-solid dosage forms. The base and solvent of a semi-solid dosage form are generally widely used in medicine and daily chemical products. The excipients which can be added are also the common excipients in the manual of excipients. Therefore, the patent compounds are prepared into corresponding test ointments. The ointment compound was dissolved with diisopropyl adipate to prepare a vaseline-based ointment. In order to improve the stability of the ointment, microcrystalline cellulose was added as an excipient in the formulation. The white vaseline has a melting point of 45-60° C. The solution, white vaseline, and microcrystalline cellulose are thoroughly mixed while the vaseline is in a molten state. After cooling to solidification, it was divided into an aluminum ointment, and the specific weight ratios of base, solvent, and excipients are shown in Table 4.
Dorsal modeling site skin PASI was performed on the experimental animals.
Statistical analysis of PASI scores was performed using Two-way ANOVA. All data were analyzed using GraphPad Prism 8.0 software with a p<0.05 significant difference (*, p<0.05; **, p<0.01).
The PASI score curves of CPD-029, CPD-028, CPD-027, CPD-017, and CPD-002 compared with the model group, excipient group, and Dex cream group are shown in FIGS. 1, 2, 3, 4, and 5, respectively. Among them, the model group was treated with 62.5 mg of 5% IMQ cream applied to the back skin of mice once daily to induce psoriasis, and the excipient group was treated with 15% (w/w) diisopropyl adipate, 80% vaseline, and […].

[2] = Hydrolysis rate / drug release rate of the compounds (release of JAK inhibitor, HPLC); assay type: physicochemical; conditions: % release of JAK inhibitor from sample in acetonitrile/water=7/3 (v/v), 37° C. constant temperature shaker, sampled days 1-4, HPLC
Outline: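 HPLC quantified parent JAK inhibitor freed from each compound, calibrated with 0.0002–0.08 mg/mL standards. Samples in acetonitrile/water 7/3 were kept sealed at 37° C and analysed at day 0 and on days 1 to 4. % release was computed from sample weight, curve slope/intercept and the molecular-weight ratio.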

| Release Rate (%/day) [2] [%/day] | Compound | PASI score: therapeutic effect compared with the excipient group [1] |
| --- | --- | --- |
| 7.08 | CCC(C(=O)n1ccc2c(N(C)[C@H]3CN(C(=O)CC#N)CC[C@H]3C)ncnc21)c1ccc(N2Cc3ccccc3C2=O)cc1 (stereo partly drawn) [Ex. 29, 3-((3R, 4R)-4-methyl-3-(methyl (7-(2-(4-(1-oxoisoindolin-2-yl)phenyl)butanoyl)-7H-pyrrolo [2,3-d]pyrimidin-4-yl)amino)piperidin-1-yl)-3-oxopropanenitrile] | significant therapeutic effect in day 5-day 10 |
| 2.98 | CC(C)Cc1ccc([C@H](C)C(=O)n2ccc3c(-c4cnn([C@H](CC#N)C5CCCC5)c4)ncnc32)cc1 [Ex. 28] | significant therapeutic effect in day 5-day 10 |
| 7.48 | CNS(=O)(=O)CC1CCC(N(C)c2ncnc3c2ccn3C(=O)[C@@H](C)c2ccc(CC(C)C)cc2)CC1 (stereo partly drawn) [Ex. 27, 1-((1S, 4R)-4-((7-((S)-2-(4-isobutylphenyl)propanoyl)-7H-pyrrolo [2,3-d]pyrimidin-4-yl) (methyl)amino)cyclohexyl)-N-methyl methanesulfonamide] | significant therapeutic effect in day 5-day 10 |
| 2.44 | CCS(=O)(=O)N1CC(CC#N)(n2cc(-c3ncnc4c3ccn4C(=O)[C@@H](C)c3ccc(CC(C)C)cc3)cn2)C1 [Ex. 17, (S)-2-(1-(ethylsulfonyl)-3-(4-(7-(2-(4-isobutyl-phenyl)propanoyl)-7H-pyrrolo[2,3-d]pyrimidin-4-yl)-1H-pyrazol-1-yl)azetidin-3-yl)acetonitrile] | significant therapeutic effect in day 5-day 10 |
| 8.5 | CC(C)Cc1ccc([C@H](C)C(=O)n2ccc3c(N(C)[C@H]4CN(C(=O)CC#N)CC[C@H]4C)ncnc32)cc1 [Ex. 2, 3-((3R,4R)-3-((7-((S)-2-(4-isobutylphenyl)propanoyl)-7H-pyrrolo[2,3-d]pyrimidin-4-yl) (methyl)amino)-4-methylpiperidin-1-yl)-3-oxopropanenitrile] | significant therapeutic effect in day 4 day 8 |
